Measured values as given in paper PMC12332554, “Novel Benzofuran-3-yl-methyl and Aliphatic Azacyclics: Design, Synthesis, and In Vitro and In Silico anti-Alzheimer Disease Activity Studies” (ACS Omega, 2025).

Legend:
human BChE = human BChE (Homo sapiens, UniProt P06276); assay: biochemical; details: read-out: BChE % Inhibition;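 note: inhibition of BChE determined with an adapted Ellman method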
Procedure: (§1) According to the modified Ellman approach outlined in our earlier works − the AChE and BChE inhibitory activities of the obtained compounds were evaluated.

AChE [1] = biological target: T1, AChE (Homo sapiens, UniProt P22303); assay: AChE inhibition, modified Ellman approach; type: biochemical; details: for inhibition at 1000 µM: 10^-3 M; for inhibition at 100 µM: 10^-4 M; for inhibition at 10 µM: 10^-5 M; for inhibition at 1 µM: 10^-6 M; for inhibition at 0.1 µM: 10^-7 M; for inhibition at 0.01 µM: 10^-8 M; for inhibition at 0.001 µM: 10^-9 M
T1 sequence (P22303 32-614): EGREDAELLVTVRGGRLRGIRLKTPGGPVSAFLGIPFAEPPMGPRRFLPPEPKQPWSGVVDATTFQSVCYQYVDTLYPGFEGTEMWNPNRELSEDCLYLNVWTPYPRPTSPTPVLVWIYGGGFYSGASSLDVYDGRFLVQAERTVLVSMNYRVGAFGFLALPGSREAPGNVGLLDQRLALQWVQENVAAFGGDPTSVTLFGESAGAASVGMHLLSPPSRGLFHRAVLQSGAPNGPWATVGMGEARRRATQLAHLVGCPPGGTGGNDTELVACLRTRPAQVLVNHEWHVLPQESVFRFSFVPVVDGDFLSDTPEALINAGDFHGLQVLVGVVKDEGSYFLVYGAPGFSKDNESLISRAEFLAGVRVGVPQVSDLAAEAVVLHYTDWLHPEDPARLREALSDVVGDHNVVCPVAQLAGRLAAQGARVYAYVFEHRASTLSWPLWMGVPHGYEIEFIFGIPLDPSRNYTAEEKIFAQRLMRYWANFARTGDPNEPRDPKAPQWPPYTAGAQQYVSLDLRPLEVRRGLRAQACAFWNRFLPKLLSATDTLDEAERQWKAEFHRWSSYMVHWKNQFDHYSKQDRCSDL
Procedure: as §1

[2] = biological target: T2, Human β-Secretase (BACE-1) (Homo sapiens, UniProt P56817); assay: Human β-Secretase (BACE-1) Inhibitor Screening Assay kit (fluorometric); type: biochemical
T2 construct: purchased K720-100
T2 sequence (P56817 46-501): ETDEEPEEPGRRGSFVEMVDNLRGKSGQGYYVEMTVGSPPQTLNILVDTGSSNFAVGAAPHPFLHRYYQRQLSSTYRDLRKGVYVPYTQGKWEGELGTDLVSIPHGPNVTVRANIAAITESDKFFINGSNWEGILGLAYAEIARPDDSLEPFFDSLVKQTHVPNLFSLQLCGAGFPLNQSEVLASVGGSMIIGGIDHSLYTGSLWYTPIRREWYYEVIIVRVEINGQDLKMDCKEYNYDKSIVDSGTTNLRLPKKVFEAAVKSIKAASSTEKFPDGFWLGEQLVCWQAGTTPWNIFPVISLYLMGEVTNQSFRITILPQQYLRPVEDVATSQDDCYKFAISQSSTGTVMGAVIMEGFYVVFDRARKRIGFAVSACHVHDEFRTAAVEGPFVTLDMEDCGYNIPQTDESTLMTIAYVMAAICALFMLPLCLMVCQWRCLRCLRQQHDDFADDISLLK
Source text: The experimental procedure was based on the “Human β-Secretase (BACE-1) Inhibitor Screening Assay” kit (Human β-Secretase (BACE1) Inhibitor Screening Kit (Fluorometric)-Catalog no: K720-100) protocol based on the fluorometric method as performed previously.

AChE [3] = biological target: T1, AChE; assay: Kinetic studies of AChE enzyme inhibition (Lineweaver–Burk, secondary plot); type: biochemical; details: Lineweaver–Burk plots
Procedure: Enzyme kinetics studies were conducted to determine the mechanism of inhibition of AChE using a procedure similar to that of the inhibition assay for cholinesterase enzymes. […] Linear Lineweaver–Burk graphs were used to estimate the type of inhibition of this compound. The velocity curves of the substrates were recorded in the absence and presence of compound 4m. […] In each case, the initial velocity measurements were obtained at different substrate (ATC) concentrations ranging from 600 to 18.75 μM.
For this purpose, this compound was prepared at different concentrations (IC50, 2xIC50 and IC50/2). Moreover, a substrate (ATC) was used at various concentrations (600, 300, 150, 75, 37.5, and 18.75 μM). The enzyme kinetics assay was carried out as in our previous. − Lineweaver–Burk plots were formed using Microsoft Office Excel 2013. The K i values of the compound were easily calculated from the second plot with a common intercept on the x-axis (corresponding to –K i).

Sequence of human BChE (P06276 29-602): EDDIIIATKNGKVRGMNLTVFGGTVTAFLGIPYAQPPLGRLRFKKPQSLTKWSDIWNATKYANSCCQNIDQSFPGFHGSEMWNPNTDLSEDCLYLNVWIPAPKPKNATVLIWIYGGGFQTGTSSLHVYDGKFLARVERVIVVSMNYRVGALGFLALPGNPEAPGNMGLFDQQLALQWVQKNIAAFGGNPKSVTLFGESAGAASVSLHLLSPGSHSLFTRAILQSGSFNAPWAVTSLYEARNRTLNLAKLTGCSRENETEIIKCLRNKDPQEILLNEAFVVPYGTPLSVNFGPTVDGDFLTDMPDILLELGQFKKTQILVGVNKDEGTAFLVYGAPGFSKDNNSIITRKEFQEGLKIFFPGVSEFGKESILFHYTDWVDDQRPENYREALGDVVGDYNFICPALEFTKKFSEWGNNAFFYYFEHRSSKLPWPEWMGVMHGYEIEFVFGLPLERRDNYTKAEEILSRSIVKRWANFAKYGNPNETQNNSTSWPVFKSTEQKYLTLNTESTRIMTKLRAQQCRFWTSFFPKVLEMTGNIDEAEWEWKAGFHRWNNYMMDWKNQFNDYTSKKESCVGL

| Structure (SMILES) | inhibition at 100 µM (human BChE) [%] | inhibition at 1000 µM (human BChE) [%] | inhibition at 1000 µM (AChE [1]) [%] | inhibition at 100 µM (AChE [1]) [%] | IC50 [2] [nM] | IC50 (AChE [1]) [nM] | inhibition at 10 µM (AChE [1]) [%] | inhibition at 1 µM (AChE [1]) [%] | inhibition at 0.1 µM (AChE [1]) [%] | inhibition at 0.01 µM (AChE [1]) [%] | inhibition at 0.001 µM (AChE [1]) [%] | type of AChE inhibition (AChE [3]) | β-secretase (BACE-1) IC50 [2] |
| --- | --- | --- | --- | --- | --- | --- | --- | --- | --- | --- | --- | --- | --- |
| O=C(c1ccccc1)c1oc2ccccc2c1CSC(=S)N1CCCCC1 [4a, (2-Benzoylbenzofuran-3-yl)methylpiperidine-1-dithiocarbamate] | 25.8 ± 0.92 | 31.7 ± 0.89 | 65.2 ± 1.02 | 40.7 ± 0.98 | – | – | – | – | – | – | – | – | – |
| CC1CCCCN1C(=S)SCc1c(C(=O)c2ccccc2)oc2ccccc12 (stereo not drawn) [4b, (2-Benzoylbenzofuran-3-yl)methyl 2-Methylpiperidine-1-dithiocarbamate] | 27.3 ± 0.79 | 33.9 ± 0.9 | 58.4 ± 1.9 | 43.4 ± 1.62 | – | – | – | – | – | – | – | – | – |
| CC1CCCN(C(=S)SCc2c(C(=O)c3ccccc3)oc3ccccc23)C1 (stereo not drawn) [4c, (2-Benzoylbenzofuran-3-yl)methyl 3-Methylpiperidine-1-dithiocarbamate] | 22.1 ± 0.84 | 30.4 ± 0.9 | 71.7 ± 1.1 | 43 ± 0.89 | – | – | – | – | – | – | – | – | – |
| CC1CCN(C(=S)SCc2c(C(=O)c3ccccc3)oc3ccccc23)CC1 [4d, (2-Benzoylbenzofuran-3-yl)methyl 4-Methylpiperidine-1-dithiocarbamate] | 24.4 ± 0.93 | 28.3 ± 0.81 | 63.8 ± 1.59 | 40.7 ± 0.97 | – | – | – | – | – | – | – | – | – |
| O=C(c1ccccc1)c1oc2ccccc2c1CSC(=S)N1CCC(Cc2ccccc2)CC1 [4e, (2-Benzoylbenzofuran-3-yl)methyl 4-Benzylpiperidine-1-dithiocarbamate] | 29 ± 0.73 | 35.6 ± 0.88 | 92.6 ± 1.38 | 88.6 ± 1.4 | 134 ± 6 | 49 ± 2 | 80.2 ± 1.11 | 74.3 ± 1.5 | 61.6 ± 0.92 | 45.4 ± 0.72 | 21.5 ± 0.86 | – | – |
| O=C(c1ccccc1)c1oc2ccccc2c1CSC(=S)N1CCOCC1 [4f, (2-Benzoylbenzofuran-3-yl)methyl Morpholine-4-dithiocarbamate] | 20.7 ± 0.86 | 28.4 ± 0.92 | 70.8 ± 1.12 | 41.3 ± 0.9 | – | – | – | – | – | – | – | – | – |
| CN(C)CCCN1CCN(C(=S)SCc2c(C(=O)c3ccccc3)oc3ccccc23)CC1 [4g, (2-Benzoylbenzofuran-3-yl)methyl 4-(3-(Dimethylamino)propyl)piperazine-1-dithiocarbamate] | 21.7 ± 0.93 | 29.3 ± 0.89 | 69 ± 0.97 | 39.1 ± 0.87 | – | – | – | – | – | – | – | – | – |
| O=C(c1ccccc1)c1oc2ccccc2c1CSC(=S)N1CCN(C(=O)c2ccco2)CC1 [4h, (2-Benzoylbenzofuran-3-yl)methyl 4-(Furan-2-carbonyl)piperazine-1-dithiocarbamate] | 28.3 ± 0.82 | 36.8 ± 0.76 | 90.7 ± 1.24 | 84.2 ± 1.33 | 155 ± 7 | 54 ± 2 | 80.3 ± 1.1 | 75.9 ± 1.32 | 60.3 ± 0.97 | 45.7 ± 0.87 | 23 ± 0.78 | – | – |
| O=C(c1ccccc1)c1oc2ccccc2c1CSC(=S)N1CCN(c2ncccn2)CC1 [4i, (2-Benzoylbenzofuran-3-yl)methyl 4-(Pyrimidine-2-yl)piperazine-1-dithiocarbamate] | 20.8 ± 0.88 | 28.6 ± 0.82 | 72.8 ± 1 | 43.6 ± 0.87 | – | – | – | – | – | – | – | – | – |
| O=C(c1ccccc1)c1oc2ccccc2c1CSC(=S)N1CCN(c2ccccc2)CC1 [4j, (2-Benzoylbenzofuran-3-yl)methyl 4-Phenylpiperazine-1-dithiocarbamate] | 24.9 ± 0.92 | 31.6 ± 0.73 | 75.6 ± 1.05 | 41 ± 0.79 | – | – | – | – | – | – | – | – | – |
| O=C(c1ccccc1)c1oc2ccccc2c1CSC(=S)N1CCN(c2ccc([N+](=O)[O-])cc2)CC1 [4k, (2-Benzoylbenzofuran-3-yl)methyl 4-(4-Nitrophenyl)piperazine-1-dithiocarbamate] | 23.6 ± 0.83 | 30.4 ± 0.93 | 69 ± 1 | 41.6 ± 0.95 | – | – | – | – | – | – | – | – | – |
| COc1ccc(N2CCN(C(=S)SCc3c(C(=O)c4ccccc4)oc4ccccc34)CC2)cc1 [4l, (2-Benzoylbenzofuran-3-yl)methyl 4-(4-Methoxyphenyl)piperazine-1-dithiocarbamate] | 21.4 ± 0.87 | 30.5 ± 0.87 | 72.3 ± 1.1 | 43.9 ± 0.98 | – | – | – | – | – | – | – | – | – |
| O=C(c1ccccc1)c1oc2ccccc2c1CSC(=S)N1CCN(CCO)CC1 [4m, (2-Benzoylbenzofuran-3-yl)methyl 4-(2-Hydroxyethyl)piperazine-1-dithiocarbamate] | 31.1 ± 0.73 | 39.1 ± 0.76 | 94.3 ± 1.64 | 89.4 ± 1.5 | 84 ± 3 | 29 ± 1 | 80.2 ± 1.48 | 75.4 ± 1.1 | 70.4 ± 1.21 | 44.7 ± 0.97 | 26.6 ± 0.72 | reversible and mixed-type inhibitor | – |
| O=C(c1ccccc1)c1oc2ccccc2c1CSC(=S)N1CCN(c2ccc(Cl)cc2)CC1 [4n, (2-Benzoylbenzofuran-3-yl)methyl 4-(4-Chlorophenyl)piperazine-1-dithiocarbamate] | 20.1 ± 0.78 | 29.6 ± 0.86 | 76.7 ± 1.26 | 46.8 ± 0.86 | – | – | – | – | – | – | – | – | – |
| O=C(c1ccccc1)c1oc2ccccc2c1CSC(=S)N1CCN(c2ccc(F)cc2)CC1 [4o, (2-Benzoylbenzofuran-3-yl)methyl 4-(4-Fluorophenyl)piperazine-1-dithiocarbamate] | 30.3 ± 0.82 | 37.5 ± 0.75 | 91.2 ± 1.57 | 83.6 ± 1.47 | > 10000 | 41 ± 2 | 75 ± 1.67 | 65.8 ± 1.1 | 58.3 ± 1 | 48 ± 0.95 | 20.8 ± 0.74 | – | no significant inhibition |
